From patent US4130433A, “Industrial biocides” (Abbott Laboratories, priority 1977, dated 1978)

Tested on: A.niger and P.funiculosum
Assay: minimum inhibitory concentration (MIC) test, agar plates, fungal growth
Assay type: cell-based
Settings: agar inoculated with 10,000 units each of A.niger and P.funiculosum; 30° C., 2 weeks; in µg/mL (unit assumed)
Protocol: In a minimum inhibitory concentration (MIC) test, the amount of the test compound needed to prevent fungal growth is established. In this test, agar containing the test compound at a specified concentration is inoculated with 1 ml of a broth containing 10,000 units each of A.niger and P.funiculosum. The agar plates inoculated in this fashion are incubated at 30° C. for 2 weeks and growth of the micro-organisms is determined by visual inspection to establish presence or absence of fungal growth. The compounds made according to Example 1 and their MIC data are shown in the following table, wherein X, Y, Y' and Z are as indicated in Structure I.

COC(=O)c1cc(Oc2ccc(Cl)cc2Cl)ccc1N1C(=O)C(Cl)=C(Cl)C1=O [X=Cl, Y=2-CO2 Me, Y'=2,4-Cl2, Z=O]
MIC: 1000-1500

O=C1C(Cl)=C(Cl)C(=O)N1c1ccc(Oc2ccc(Cl)c(Cl)c2)c(Cl)c1 [X=Cl, Y=3-Cl, Y'=3,4-Cl2, Z=O]
MIC: > 2000

O=C1C(Cl)=C(Cl)C(=O)N1c1ccc(Oc2ccc(Cl)cc2Cl)cc1 [X=Cl, Y=H, Y'=2,4-Cl2, Z=O]
MIC: 1000-1500

O=C1C(Cl)=C(Cl)C(=O)N1c1ccc(Sc2ccc([N+](=O)[O-])cc2)cc1 [X=Cl, Y=H, Y'=4-NO2, Z=S]
MIC: 50-100

O=C1C(Cl)=C(Cl)C(=O)N1c1ccc(Sc2ccccc2)cc1 [X=Cl, Y=H, Y'=H, Z=S, N-(p-phenylthiophenyl)-2,3-dichloromaleimide]
MIC: 500-1000

COC(=O)c1cc(Oc2ccc(Cl)cc2Cl)ccc1N1C(=O)C=CC1=O [X=H, Y=2-CO2 Me, Y'=2,4-Cl2, Z=O]
MIC: 10- 50

O=C1C=CC(=O)N1c1ccc(Oc2ccc(Cl)cc2Cl)cc1 [X=H, Y=H, Y'=2,4-Cl2, Z=O]
MIC: 50-100

O=C1C=CC(=O)N1c1ccc(Sc2ccc([N+](=O)[O-])cc2)cc1 [X=H, Y=H, Y'=4-NO2, Z=S]
MIC: 50-100

O=C1C=CC(=O)N1c1ccc(Sc2ccccc2)cc1 [X=H, Y=H, Y'=H, Z=S]
MIC: 100-200
